According to publication PMC4574351, “Tubulin cofactors and Arl2 are cage-like chaperones that regulate the soluble αβ-tubulin pool for microtubule dynamics” (eLife, 2015):
Read-outs that look alike come from different tables or passages of the source.

Legend:
Experiment in all cases: malachite green phosphate release, Michaelis-Menten fit
Assay type in all cases: biochemical
[1] = molecular target: T1, TBC-DEG:αβ-tubulin:TBCC ternary complex (Saccharomyces cerevisiae, UniProt P39110, Q73L); conditions: 1 μM each TBC-DEG-Q73L, buffer and temperature same, text prints 387 μM, residual turnover ascribed to tubulin, read-out: Km (GTP)
T1 construct: gene CIN4; recombinant yeast TBC-DEG and full-length TBCC with equimolar double-cycled porcine brain tubulin dimer; tubulin may contribute to GTP turnover; with Protein CIN1; Protein PAC2; Tubulin-folding cofactor C; Tubulin alpha chain (Sus scrofa brain, isotype mixture); Tubulin beta chain (Sus scrofa brain, isotype mixture)
T1 sequence (P39110 whole entry Q73L, one chain of several): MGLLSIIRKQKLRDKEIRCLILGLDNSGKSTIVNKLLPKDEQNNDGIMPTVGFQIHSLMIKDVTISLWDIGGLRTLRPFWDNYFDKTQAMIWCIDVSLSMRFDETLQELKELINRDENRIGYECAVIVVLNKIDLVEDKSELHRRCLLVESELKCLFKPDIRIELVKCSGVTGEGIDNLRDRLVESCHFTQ
T1 sequence (P46670 whole entry partner, one chain of several): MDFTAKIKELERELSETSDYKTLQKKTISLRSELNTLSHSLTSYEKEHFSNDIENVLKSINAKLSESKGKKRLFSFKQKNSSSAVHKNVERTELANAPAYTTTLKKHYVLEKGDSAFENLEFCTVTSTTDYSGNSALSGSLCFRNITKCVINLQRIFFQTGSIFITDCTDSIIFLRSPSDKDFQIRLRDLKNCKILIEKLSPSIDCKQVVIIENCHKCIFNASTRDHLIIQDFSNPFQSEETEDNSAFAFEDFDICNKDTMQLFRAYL
T1 sequence (P02550 whole entry partner, one chain of several): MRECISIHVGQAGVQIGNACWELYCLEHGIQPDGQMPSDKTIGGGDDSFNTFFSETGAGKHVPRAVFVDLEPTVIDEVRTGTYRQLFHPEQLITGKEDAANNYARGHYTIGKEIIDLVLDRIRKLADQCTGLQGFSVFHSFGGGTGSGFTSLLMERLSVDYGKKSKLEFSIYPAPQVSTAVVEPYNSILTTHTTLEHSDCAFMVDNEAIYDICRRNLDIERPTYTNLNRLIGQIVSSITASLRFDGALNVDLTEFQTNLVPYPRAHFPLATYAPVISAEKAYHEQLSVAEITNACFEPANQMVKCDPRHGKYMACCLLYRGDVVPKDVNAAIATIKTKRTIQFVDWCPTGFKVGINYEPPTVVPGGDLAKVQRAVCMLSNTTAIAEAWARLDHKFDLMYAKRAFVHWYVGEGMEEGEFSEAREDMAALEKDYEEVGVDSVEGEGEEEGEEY
T1 sequence (P02554 whole entry partner, one chain of several): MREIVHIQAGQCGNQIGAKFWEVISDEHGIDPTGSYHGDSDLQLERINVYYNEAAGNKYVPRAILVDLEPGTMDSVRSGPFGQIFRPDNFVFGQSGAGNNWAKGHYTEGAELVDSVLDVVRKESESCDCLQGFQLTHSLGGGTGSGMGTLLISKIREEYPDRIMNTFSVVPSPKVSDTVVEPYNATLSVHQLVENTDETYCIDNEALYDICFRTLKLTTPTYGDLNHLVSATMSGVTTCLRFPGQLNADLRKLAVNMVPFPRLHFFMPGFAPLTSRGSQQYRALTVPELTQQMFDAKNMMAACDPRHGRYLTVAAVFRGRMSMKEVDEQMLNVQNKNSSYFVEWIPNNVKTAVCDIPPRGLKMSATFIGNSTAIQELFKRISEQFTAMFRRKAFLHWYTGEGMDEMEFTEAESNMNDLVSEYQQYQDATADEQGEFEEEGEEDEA
Text: (§1) malachite green phosphate release, Michaelis-Menten fit on TBC-DEG:αβ-tubulin:TBCC ternary complex

[2] = molecular target: T2, TBC-DEG:αβ-tubulin:TBCC ternary complex (Saccharomyces cerevisiae, UniProt P39110); conditions: 1 μM each TBC-DEG, buffer and temperature same, read-out: Km (GTP)
T2 construct: gene CIN4; recombinant yeast TBC-DEG and full-length TBCC with equimolar double-cycled porcine brain tubulin dimer; tubulin may contribute to GTP turnover; with Protein CIN1; Protein PAC2; Tubulin-folding cofactor C; Tubulin alpha chain (Sus scrofa brain, isotype mixture); Tubulin beta chain (Sus scrofa brain, isotype mixture)
Text: as §1

TBC-DEG (TBCD-TBCE-Arl2) = molecular target: T3, TBC-DEG (TBCD-TBCE-Arl2) (Saccharomyces cerevisiae, UniProt P39110); conditions: 1 μM TBC-DEG alone; 0-800 μM GTP; 50 mM HEPES, 100 mM KCl; 30 °C, 90 min
T3 construct: gene CIN4; full-length subunits co-expressed in E. coli (polycistronic), 6xHis N-terminal tag; 1:1:1 heterotrimer, ~205 kDa; with Protein CIN1; Protein PAC2
T3 sequence (P39110 1-191): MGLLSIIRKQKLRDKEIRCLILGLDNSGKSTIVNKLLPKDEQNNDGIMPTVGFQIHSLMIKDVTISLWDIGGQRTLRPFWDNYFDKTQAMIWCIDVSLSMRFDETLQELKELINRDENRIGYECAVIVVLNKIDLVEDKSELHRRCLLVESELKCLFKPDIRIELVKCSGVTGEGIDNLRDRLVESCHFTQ
T3 sequence (P40987 1-1014 partner): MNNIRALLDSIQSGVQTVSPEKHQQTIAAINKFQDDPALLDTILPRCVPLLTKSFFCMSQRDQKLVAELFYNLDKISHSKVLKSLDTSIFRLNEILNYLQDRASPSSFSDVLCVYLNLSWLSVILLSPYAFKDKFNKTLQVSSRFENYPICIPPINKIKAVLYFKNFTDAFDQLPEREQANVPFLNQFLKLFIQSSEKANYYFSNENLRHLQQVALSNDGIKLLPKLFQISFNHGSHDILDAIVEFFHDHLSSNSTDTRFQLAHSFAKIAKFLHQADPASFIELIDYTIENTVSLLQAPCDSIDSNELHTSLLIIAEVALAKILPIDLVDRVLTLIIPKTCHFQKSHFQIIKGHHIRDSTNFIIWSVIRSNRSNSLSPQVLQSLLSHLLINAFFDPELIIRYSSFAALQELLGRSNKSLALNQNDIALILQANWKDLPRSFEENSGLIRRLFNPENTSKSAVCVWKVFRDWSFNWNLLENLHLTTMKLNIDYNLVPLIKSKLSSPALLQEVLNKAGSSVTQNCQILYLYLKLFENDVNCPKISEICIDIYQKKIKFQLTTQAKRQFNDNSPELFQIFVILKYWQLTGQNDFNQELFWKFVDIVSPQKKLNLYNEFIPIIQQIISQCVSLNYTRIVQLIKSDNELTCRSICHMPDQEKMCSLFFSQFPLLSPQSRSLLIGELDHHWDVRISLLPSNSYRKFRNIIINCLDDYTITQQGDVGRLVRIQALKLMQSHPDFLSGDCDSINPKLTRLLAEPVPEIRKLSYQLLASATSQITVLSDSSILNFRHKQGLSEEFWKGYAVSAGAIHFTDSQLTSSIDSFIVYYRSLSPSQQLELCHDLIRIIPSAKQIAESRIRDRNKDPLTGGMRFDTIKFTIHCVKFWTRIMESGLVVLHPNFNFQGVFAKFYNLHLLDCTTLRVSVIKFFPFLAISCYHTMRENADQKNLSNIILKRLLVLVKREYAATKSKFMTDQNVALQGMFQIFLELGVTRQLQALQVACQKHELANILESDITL
T3 sequence (P39937 1-518 partner): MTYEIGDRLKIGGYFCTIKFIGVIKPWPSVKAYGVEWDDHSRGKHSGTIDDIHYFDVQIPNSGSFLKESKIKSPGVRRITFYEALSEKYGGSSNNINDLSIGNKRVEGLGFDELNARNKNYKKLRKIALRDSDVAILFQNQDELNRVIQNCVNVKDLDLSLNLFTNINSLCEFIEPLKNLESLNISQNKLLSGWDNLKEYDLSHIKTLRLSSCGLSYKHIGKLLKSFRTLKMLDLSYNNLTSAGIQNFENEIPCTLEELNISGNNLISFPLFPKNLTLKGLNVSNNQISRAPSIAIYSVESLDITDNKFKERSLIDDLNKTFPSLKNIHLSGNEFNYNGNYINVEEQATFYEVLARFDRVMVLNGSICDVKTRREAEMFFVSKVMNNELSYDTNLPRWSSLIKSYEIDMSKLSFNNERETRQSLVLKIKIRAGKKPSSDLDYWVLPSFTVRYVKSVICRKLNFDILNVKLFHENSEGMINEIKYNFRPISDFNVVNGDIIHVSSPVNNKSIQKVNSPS
Text: malachite green phosphate release, Michaelis-Menten fit on TBC-DEG (TBCD-TBCE-Arl2)

TBC-DEG:TBCC = molecular target: T4, TBC-DEG:TBCC (Saccharomyces cerevisiae, UniProt P39110); conditions: 1 μM TBC-DEG, 1 μM TBCC; buffer and temperature same; read-out: Km (GTP)
T4 construct: gene CIN4; TBC-DEG mixed with equimolar full-length TBCC (GAP), all recombinant from E. coli; with Protein CIN1; Protein PAC2; Tubulin-folding cofactor C
T4 sequence (P46670 whole entry partner, one chain of several): as the sequence (P46670 whole entry partner, one chain of several) above
Text: malachite green phosphate release, Michaelis-Menten fit on TBC-DEG:TBCC

[3] = molecular target: T5, TBC-DEG:αβ-tubulin:TBCC-Cterm (TBCC-C) (Saccharomyces cerevisiae, UniProt P39110); conditions: 1 μM each TBC-DEG, buffer and temperature same, read-out: Km (GTP)
T5 construct: gene CIN4; as ternary complex but TBCC beta-helix domain only (residues 100-267, spectrin domain removed); with Protein CIN1; Protein PAC2; Tubulin-folding cofactor C; Tubulin alpha chain (Sus scrofa brain, isotype mixture); Tubulin beta chain (Sus scrofa brain, isotype mixture)
T5 sequence (P46670 100-267 partner, one chain of several): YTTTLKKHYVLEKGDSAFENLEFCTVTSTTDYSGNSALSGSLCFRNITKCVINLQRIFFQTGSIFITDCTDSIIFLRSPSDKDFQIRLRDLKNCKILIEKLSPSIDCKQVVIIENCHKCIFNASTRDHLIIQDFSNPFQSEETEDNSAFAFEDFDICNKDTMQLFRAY
T5 sequence (P02550 whole entry partner, one chain of several, the tested form may be a part): as the sequence (P02550 whole entry partner, one chain of several) above
T5 sequence (P02554 whole entry partner, one chain of several, the tested form may be a part): as the sequence (P02554 whole entry partner, one chain of several) above
Text: malachite green phosphate release, Michaelis-Menten fit on TBC-DEG:αβ-tubulin:TBCC-Cterm (TBCC-C)

TBC-DEG:αβ-tubulin = molecular target: T6, TBC-DEG:αβ-tubulin (Saccharomyces cerevisiae, UniProt P39110); conditions: 1 μM TBC-DEG, 1 μM αβ-tubulin; buffer and temperature same; GTPase site may be Arl2 or tubulin; read-out: Km (GTP)
T6 construct: gene CIN4; recombinant yeast TBC-DEG with equimolar double-cycled porcine brain tubulin dimer; tubulin may contribute to GTP turnover; with Protein CIN1; Protein PAC2; Tubulin alpha chain (Sus scrofa brain, isotype mixture); Tubulin beta chain (Sus scrofa brain, isotype mixture)
T6 sequence (P02550 whole entry partner, one chain of several): as the sequence (P02550 whole entry partner, one chain of several) above
T6 sequence (P02554 whole entry partner, one chain of several): as the sequence (P02554 whole entry partner, one chain of several) above
Text: malachite green phosphate release, Michaelis-Menten fit on TBC-DEG:αβ-tubulin

Structure (SMILES): Nc1nc2c(ncn2[C@@H]2O[C@H](COP(=O)(O)OP(=O)(O)OP(=O)(O)O)[C@@H](O)[C@H]2O)c(=O)[nH]1 [GTP]
- Km [1]: 371 ± 20 µM
- Km ([2]; TBCC-R186A, arginine finger mutant): 40 ± 10 µM
- Km ([2]; TBCC-Δ233-245, αβ-tubulin): 35 ± 8 µM
- Km ([2]; Arl2 with minor tubulin contribution): 99 ± 10 µM
- Km (TBC-DEG (TBCD-TBCE-Arl2)): 400 ± 30 µM
- Km (TBC-DEG:TBCC): 94 ± 10 µM
- Km [3]: 56 ± 7 µM
- Km (TBC-DEG:αβ-tubulin): 69 ± 12 µM
